How the values were obtained:
[1] = target: T1, Serine/threonine-protein kinase LATS1 (Homo sapiens) (UniProt O95835); test: Inhibition of LATS1 (unknown origin) phosporylation relative to control; conditions: dose 10.0 µM
T1 sequence (whole entry): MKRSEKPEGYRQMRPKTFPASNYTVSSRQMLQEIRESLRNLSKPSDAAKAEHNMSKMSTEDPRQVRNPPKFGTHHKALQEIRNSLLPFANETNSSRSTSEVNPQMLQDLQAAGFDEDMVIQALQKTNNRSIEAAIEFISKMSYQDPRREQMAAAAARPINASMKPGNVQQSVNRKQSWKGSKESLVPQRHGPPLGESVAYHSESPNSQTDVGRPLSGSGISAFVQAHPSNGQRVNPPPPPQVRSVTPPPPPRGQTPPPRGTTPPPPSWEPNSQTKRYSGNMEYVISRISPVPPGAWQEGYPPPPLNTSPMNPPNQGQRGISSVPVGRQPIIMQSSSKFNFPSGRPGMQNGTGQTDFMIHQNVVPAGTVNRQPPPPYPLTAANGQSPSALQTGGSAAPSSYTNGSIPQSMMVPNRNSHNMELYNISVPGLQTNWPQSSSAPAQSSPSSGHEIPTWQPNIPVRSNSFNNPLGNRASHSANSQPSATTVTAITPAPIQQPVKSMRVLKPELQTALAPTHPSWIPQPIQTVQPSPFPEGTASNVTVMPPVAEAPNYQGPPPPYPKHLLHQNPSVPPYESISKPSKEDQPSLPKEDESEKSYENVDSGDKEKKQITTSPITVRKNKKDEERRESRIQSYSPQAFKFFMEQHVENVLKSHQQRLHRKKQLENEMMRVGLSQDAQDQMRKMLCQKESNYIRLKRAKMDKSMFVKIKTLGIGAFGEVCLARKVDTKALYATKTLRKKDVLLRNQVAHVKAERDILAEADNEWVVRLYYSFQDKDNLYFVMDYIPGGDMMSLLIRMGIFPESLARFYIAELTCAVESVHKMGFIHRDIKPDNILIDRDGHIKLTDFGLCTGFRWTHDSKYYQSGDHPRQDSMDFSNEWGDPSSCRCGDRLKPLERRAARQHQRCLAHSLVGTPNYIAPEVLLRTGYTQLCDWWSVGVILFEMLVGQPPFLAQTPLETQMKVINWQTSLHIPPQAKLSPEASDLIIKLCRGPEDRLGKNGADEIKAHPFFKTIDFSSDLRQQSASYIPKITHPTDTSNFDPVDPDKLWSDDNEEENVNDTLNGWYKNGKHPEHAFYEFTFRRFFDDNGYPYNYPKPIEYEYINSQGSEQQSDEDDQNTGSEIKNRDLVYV

[2] = target: Transcriptional coactivator YAP1 (Homo sapiens) (UniProt P46937); test: Inhibition of YAP (unknown origin) phosporylation relative to control; conditions: concentration not given here
Chain of Transcriptional coactivator YAP1 (Homo sapiens) (P46937 whole entry): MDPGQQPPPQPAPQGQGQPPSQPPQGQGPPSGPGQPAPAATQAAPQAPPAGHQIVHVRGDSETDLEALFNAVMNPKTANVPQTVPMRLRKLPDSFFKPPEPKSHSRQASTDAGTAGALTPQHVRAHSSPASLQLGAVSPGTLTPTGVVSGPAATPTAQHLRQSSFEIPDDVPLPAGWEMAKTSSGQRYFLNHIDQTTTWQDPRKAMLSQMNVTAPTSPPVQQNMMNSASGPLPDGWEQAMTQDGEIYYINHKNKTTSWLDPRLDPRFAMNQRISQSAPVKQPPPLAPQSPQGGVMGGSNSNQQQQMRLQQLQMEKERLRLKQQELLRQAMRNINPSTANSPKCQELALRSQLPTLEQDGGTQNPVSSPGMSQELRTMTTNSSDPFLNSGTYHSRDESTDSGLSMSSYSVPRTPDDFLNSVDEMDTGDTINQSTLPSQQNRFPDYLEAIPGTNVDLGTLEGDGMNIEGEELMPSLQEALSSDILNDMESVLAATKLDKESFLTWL

- inhibition [1]: < 30%
- inhibition [2]: < 30%
SMILES: CCOc1cc2ncc(C#N)c(Nc3ccc(OCc4ccccn4)c(Cl)c3)c2cc1NC(=O)/C=C/CN(C)C
